Columns and labels:
osteoclast fusion [1] = assay: Fusion assay of prefusion osteoclasts (Example 2); type: cell-based, mice; conditions: 24 hrs; for inhibition at 0.08 µM / inhibition at 0.4 µM / inhibition at 2 µM / inhibition at 10 µM: read-out: Inhibitory action (%)
Source text: This assay is designed to evaluate the influences of each test substance in terms of osteoclast fusion during the differentiation process in which immature prefusion osteoclasts (pOC; osteoclast structure with one more nuclei) were transformed into mature multinucleated osteoclast (OCL) via cell to cell fusion (Gregg Wesolowski et al. Experimental Cell Research 219,679-686, 1995).
The prefusion osteoclast can be obtained via co-culture of both bone marrow cells and osteoblast, as prepared from Example 1. The mixture of both osteoblast (about 5×10^5 cells/plate) and bone marrow cells (about 1×10^7 cells/plate) were co-cultured in a 100 mm culture dish. Some differentiation factors, such as dexamethasone (10^−6M) and vitamin D3 (10^−9M), were added to the medium from the first day of culture. The medium was changed with a fresh medium containing differentiation factors every 2 days.
Since a great number of the prefusion osteoclasts having one or more nuclei in fusion process were formed during 4-day co-culture, the cells were separated and co-cultivation after 4 days. The medium was removed from the cells and with the addition of 0.2% collagenase solution (4 mL), the cells were incubated at 37° C. for 20 mins to separate the attachment cells. Since the majority of separated cells were osteoblasts, all osteoblasts were washed with PBS solution two or three times for their complete removal.
After the remaining prefusion osteoclasts were separated via reaction for 20 mins with the addition of echistatin containing 10% BSA, the cells were harvested by centrifuge.
The test substances diluted at each concentration were diluted at the desired concentration in α-MEM medium (addition of 10% FBS) to load them into a 96-well microplate in a dose of 100 uL per well. The osteoclastic monocytes, so separated from the preceding No. 1, were plated on a 96-well microplate in a dose of 5×10^3 cell/100 uL per well and cultured at 37° C. for 24 hrs, thus successfully resulting in the osteoclast fusion. In the case of specimen-free and positive controls, experiments were performed in the same manner as above.
The medium was removed from the cells and then the cells were washed once with PBS and fixed to a PBS solution containing 10% formalin for about 5 mins. The cells were again fixed to both ethanol and acetone (1/1) in a mixing solution for about 5 mins and dried off. The cells were further treated by TRAP staining solution for 15 mins and washed with water to observe the cells under the microscope. The TRAP-positive osteoclast counts, which were differentiated from monocyte to multinucleated cells (osteoclast having more than 10 nuclei) via fusion process, were measured.

[2] = test system: osteoclast differentiation; assay: Osteoclast differentiation, co-culture, TRAP(+)MNCs (Example 5); type: cell-based, mice; conditions: for % inhibitory action / inhibition at 0.01 µM / inhibition at 0.1 µM / inhibition at 1 µM: day 6; for inhibition at 0.01 µM / inhibition at 0.1 µM / inhibition at 1 µM: Mus musculus, Osteoclast, 144 h, read-out: % inhibitory action
Protocol: To investigate the effect of compounds on osteoclast differentiation, co-culture between bone marrow cells (2.5×10^5 cells/cm^2) and calvaria-derived osteoblastic cells (4×10^4 cells/cm^2) was conducted in the presence of 1.25(OH)2D3(10^−8 M) and dexamethasone (10^−7 M) with α-MEM containing 10% FBS (referred as “osteoclastic medium”). Bone marrow cells were isolated from the femora of 6-week-old ddY mice and primary osteoblastic cells were isolated from the calvariae of newborn ICR mice by sequential digestion with 0.2% collagenase. The medium was changed every two days with fresh osteoclastic medium. An index of osteoclast formation was determined by counting TRAP-positive multinucleated osteoclasts (TRAP(+)MNCs). On day 6, the cells were fixed with 10% formaldehyde and stained for TRAP. The number of TRAP(+) MNCs containing more than 6-7 nuclei was counted under a microscope (ZEISS Axiovert 25, Switzerland). The results are shown as the relative inhibitory activity (% inhibition) compared to the control group.

osteoclast fusion [3] = assay: Osteoclast fusion assay with purified prefusion osteoclasts (Example 5); type: cell-based, mice; conditions: for inhibition at 0.08 µM / inhibition at 0.4 µM / inhibition at 2 µM / inhibition at 10 µM: read-out: Inhibitory action (%)
Protocol: The effect of the compounds on the fusion of osteoclasts was examined using purified prefusion osteoclasts (pOC, mononuclear and binuclear osteoclasts). Co-cultures of bone marrow cells (2×10^7 cells/dish) and newborn mice calvariae (1×10^6 cells/dish) were maintained in 100-mm-diameter dishes for 4 days with osteoclast differontiarion factor. Cultures were washed twice with PBS and treated with 0.1% collagenase/dispase at 37° C. for 20 minutes. Released cells, mostly osteoblasts, were removed with a pipet and the plates were washed three times with PBS. The remaining cells were incubated with 30 uM echistatin in α-MEM containing 1% BSA for 20 min at 37° C. These cells were collected, pelleted, and washed once with α-MEM containing 10% FBS. The cells released by this treatment were the subject of the fusion assay. More than 90% of the cells in the pOCs preparation used in the present study were positive for TRAP.
pOCs (15,000 cells/well) were plated on 96 well culture plates with or without various compounds. After culture for 18 hours, the cells were fixed and stained for TRAP.

[4] = test system: osteoclast activity (resorption pits); assay: Bone resorption pit formation assay on dentine slice (Example 5); type: cell-based, mice; conditions: for Inhibitory activity (%) / inhibition at 0.01 µM / inhibition at 0.1 µM / inhibition at 1 µM: dentine slice, 24 h; for inhibition at 0.01 µM / inhibition at 0.1 µM / inhibition at 1 µM: Mus musculus, Osteoclast, read-out: Inhibitory activity (%)
Protocol: Method for evaluating the effects of the compounds on osteoclast activity: Multinucleated osteoclasts were developed on collagen gel plates by co-culture system as described. On day 6-8 of the co-culture, multinucleated OCLs were detached from plates by 0.2% collagenase treatment (“crude OCLs”). Crude OCLs suspended in α-MEM containing 10% FBS were placed on a dentine slice (4 mm diameter) in a 96-well culture plate. […] At the end of the incubation, cells were removed by 1 M NH4OH treatment and resorption pits formed (in the slices stained with Mayer's hematoxylin). Resorption pits were enumerated with an image analyzer and compared to the control group.

[5] = test system: Primary osteoblastic cells; assay: ALP activity in primary osteoblastic cells (Example 5); type: cell-based, ICR mice; conditions: for ALP activity (% of control) / ALP activity (Unit): 3 days
Protocol: Primary osteoblastic cells isolated from the calvariae of newborn ICR mice were grown to confluence in α-MEM containing 10% FBS. These cells were plated at a density of 1×10^5/ml in tissue culture dishes. After 24 h, cells were changed with a differentiation medium containing ascorbic acid (50 ug/ml) and β-glycerophosphate (10 mM) with or without the compounds and further cultured for 3 days. Cells were washed twice with PBS and harvested. For the measurement of ALP activity and total protein content, cells were extracted into 0.1% Triton X-100 in PBS containing 1 mM MgCl2 and centrifuged at 1.000×g for 5 minutes. Enzyme activity was determined in supernatants by colorimetric procedure using p-nitrophenyl phosphate (PNP) as a substrate at a wavelength of 405 nm and the protein content was determined by a Bio-Rad protein assay kit. The ALP unit was expressed as nmol PNP/ug protein/min.

[6] = Mus musculus, Osteoclast, 0.08 uM
[7] = Mus musculus, Osteoclast, 0.4 uM
[8] = Mus musculus, Osteoclast, 10 uM
[9] = Mus musculus, Osteoclast, 0.08 uM, 18 hours
[10] = Mus musculus, Osteoclast, 0.4 uM, 18 hours
[11] = Mus musculus, Osteoclast, 2 uM, 18 hours
[12] = Mus musculus, Osteoclast, 10 uM, 18 hours

Compound	ALP activity (% of control) ([5]; 0.01 uM)	ALP activity (Unit) ([5]; 0.01 uM) [nmol PNP/ug protein/min]	ALP activity (% of control) ([5]; 0.1 uM)	ALP activity (Unit) ([5]; 0.1 uM) [nmol PNP/ug protein/min]	inhibition at 0.08 µM (osteoclast fusion [1]; [6]) [%]	inhibition at 0.4 µM (osteoclast fusion [1]; [7]) [%]	inhibition at 2 µM (osteoclast fusion [1]; Mus musculus, Osteoclast, 2 uM) [%]	inhibition at 10 µM (osteoclast fusion [1]; [8]) [%]	inhibition at 0.01 µM ([2]; 0.01 uM) [%]	inhibition at 0.1 µM ([2]; 0.1 uM) [%]	inhibition at 1 µM ([2]; 1 uM) [%]	inhibition at 0.08 µM (osteoclast fusion [3]; [9]) [%]	inhibition at 0.4 µM (osteoclast fusion [3]; [10]) [%]	inhibition at 2 µM (osteoclast fusion [3]; [11]) [%]	inhibition at 10 µM (osteoclast fusion [3]; [12]) [%]	inhibition at 0.01 µM ([4]; 0.01 uM) [%]	inhibition at 0.1 µM ([4]; 0.1 uM) [%]	inhibition at 1 µM ([4]; 1 uM) [%]	other results
4-[5-[4-(aminoiminomethyl)phenoxy]pentoxy]-3-methoxy-N,N-bis(1-methylethyl)benzamide maleic acid [CGS-25019C]	121.3 % of control	20.6	115.3 % of control	19.7	–	–	–	–	–	–	–	–	–	–	–	–	–	–	Inhibitory action (%) (osteoclast fusion [1]; 0.08 uM): 10.14%; Inhibitory action (%) (osteoclast fusion [1]; 0.4 uM): 13.04%; Inhibitory action (%) (osteoclast fusion [1]; 2 uM): 13.77%; Inhibitory action (%) (osteoclast fusion [1]; 10 uM): 12.32%; % inhibitory action ([2]; 0.01 uM): 11.2%; % inhibitory action ([2]; 0.1 uM): 29.5%; % inhibitory action ([2]; 1 uM): 36.9%; Inhibitory action (%) (osteoclast fusion [3]; 0.08 uM, 18 hours): 10.14%; Inhibitory action (%) (osteoclast fusion [3]; 0.4 uM, 18 hours): 13.04%; Inhibitory action (%) (osteoclast fusion [3]; 2 uM, 18 hours): 13.77%; Inhibitory action (%) (osteoclast fusion [3]; 10 uM, 18 hours): 12.32%; Inhibitory activity (%) ([4]; 0.01 uM): 0(−24) %; Inhibitory activity (%) ([4]; 0.1 uM): 10.4%; Inhibitory activity (%) ([4]; 1 uM): 24.8%
Cc1nc(-c2ccc(OCCCCOc3ccc(C(=N)N)cc3)cc2)c(C(C)C)s1 [DW1351, 4-{4-[4-(5-isopropyl-2-methyl-1,3-thiazol-4-yl)phenoxy]butoxy}-benzamidine]	122.5 % of control	20.8	121.2 % of control	21.0	0	0	38	74	23	30.6	61.5	0	0	38	74	2.1	26.7	51.8	–
Cc1nc(-c2ccc(OCCCCCOc3ccc(C(=N)NO)cc3)cc2)c(C(C)C)s1 [DW1350, N-hydroxy-4-{5-[4-(5-isopropyl-2-methyl-1,3-thiazol-4-yl)phenoxy]pentoxy}-benzamidine]	141.9 % of control	24.4	153.7 % of control	26.7	4.5	25.6	80	98	38.5	62.7	88.7	4.5	25.6	80	98	45.2	52.6	72.6	IC50 (osteoclast fusion [1]; Mus musculus, Osteoclast): 0.81 µM; times more inhibition of osteoclast differentiation than DW1349 ([2]; versus DW1349, Table 8): 1.34 times; times stronger inhibition of osteoclast differentiation than DW1351 ([2]; versus DW1351, Table 8): about two times better; times stronger inhibition of osteoclast fusion than DW1349 (osteoclast fusion [3]; 2 uM, versus DW1349): 17.8 times; IC50 (osteoclast fusion [3]; Mus musculus, Osteoclast, 18 hours): 0.81 µM; times more inhibition of osteoclast fusion than DW1351 (osteoclast fusion [3]; versus DW1351): two fold better inhibitor; times better than DW1349 in inhibiting osteoclast activity ([4]; versus DW1349, Table 10): about 1.45 times; times more inhibition of osteoclast activity than DW1351 ([4]; versus DW1351, Table 10): two-fold better inhibitor; times better stimulator of osteoblast activity (ALP) than DW1349 ([5]; versus DW1349): 1.25 times; times greater stimulation of osteoblast activity (ALP) than DW1351 and DW1352 ([5]; versus DW1351 and DW1352): 1.15˜1.25 times
Cc1nc(-c2ccc(OCCCCOc3ccc(C(=N)NO)cc3)cc2)c(C(C)C)s1 [DW1349, N— hydroxy-4-{4-[4-(5-isopropyl-2-methyl-1,3-thiazol-4-yl)phenoxy]butoxy}-benzamidine]	113.2 % of control	19.0	101.6 % of control	17.2	0	2.3	4.5	18	31.9	46.8	85.5	0	2.3	4.5	18	19.3	36.1	64.7	–
COc1cc(C(=O)N(C(C)C)C(C)C)ccc1OCCCCOc1ccc2c(N)noc2c1 [HS1141, N,N-diisopropyl-4-[4-(3-aminobenzo[d]isooxazole-6-yloxy)butoxy]-3-methoxybenzamide]	117.3 % of control	19.9	120.9 % of control	21.0	2.1	12.3	15.7	36.3	11.4	36.4	72.9	2.1	12.3	15.7	36.3	8.2	22.7	52.7	–

Source: US8242152B2, “Use of 4-[(4-thiazolyl)phenoxy]alkoxy-benzamidine derivatives for the prophylaxis and treatment of osteoporosis” (Dong Wha Pharmaceutical Co., Ltd., priority 2001, dated 2012)
